Results as given in ChEMBL document CHEMBL1255278, “Caspofungin prolongs survival of transiently neutropenic rats with advanced-stage invasive pulmonary aspergillosis” (Antimicrob Agents Chemother, 2008).
≈ marks a conversion by molar mass, not a printed value.

Key:
Rattus norvegicus [1] = assay: Hepatotoxicity in neutropenic rat assessed as ALAT level in serum at 10 mg/kg/day, ip administered 72 hrs post infection for 3 days followed by 4 mg/kg/day, ip for 7 days measured on day 6 after infection (Rvb=43.9+/-7.9 U/l); format: toxicity, organism-based; details: in vivo
Rattus norvegicus [2] = assay: Hepatotoxicity in neutropenic rat assessed as ASAT level in serum at 10 mg/kg/day, ip administered 72 hrs post infection for 10 days measured on day 6 after infection (Rvb=51.2+/-9.4 U/l); format: toxicity, organism-based; set-up: route intraperitoneal; details: in vivo
Rattus norvegicus [3] = assay: Hepatotoxicity in neutropenic rat assessed as ALAT level in serum at 10 mg/kg/day, ip administered 72 hrs post infection for 10 days measured on day 13 after infection (Rvb=51.3+/-5.2 U/l); format: toxicity, organism-based; set-up: route intraperitoneal; details: in vivo
Rattus norvegicus [4] = assay: Renal toxicity in neutropenic rat assessed as blood urea nitrogen level in serum at 10 mg/kg/day, ip administered 72 hrs post infection for 10 days measured on day 13 (Rvb=5.8+/-0.4 mmol/l); format: organism-based; set-up: route intraperitoneal; details: in vivo
Rattus norvegicus [5] = assay: Hepatotoxicity in neutropenic rat assessed as ALAT level in serum at 4 mg/kg/day, ip administered 72 hrs post infection for 10 days measured on day 6 after infection (Rvb=43.9+/-7.9 U/l); format: toxicity, organism-based; set-up: route intraperitoneal; details: in vivo
Aspergillus fumigatus [6] = assay: Antifungal activity against Aspergillus fumigatus infected in neutropenic rat assessed as survival of rat at 4 mg/kg/day, ip administered 16 hrs post infection for 10 days; format: functional; details: route intraperitoneal
Aspergillus fumigatus [7] = assay: Antifungal activity against Aspergillus fumigatus infected in neutropenic rat assessed as survival of rat at 10 mg/kg/day, ip administered 72 hrs post infection for 10 days; format: functional; details: route intraperitoneal
Rattus norvegicus [8] = assay: Hepatotoxicity in neutropenic rat assessed as ALAT level in serum at 10 mg/kg/day, ip administered 72 hrs post infection for 10 days measured on day 6 after infection (Rvb=43.9+/-7.9 U/l); format: toxicity, organism-based; set-up: route intraperitoneal; details: in vivo
Rattus norvegicus [9] = assay: Hepatotoxicity in neutropenic rat assessed as ALAT level in serum at 4 mg/kg/day, ip administered 72 hrs post infection for 10 days measured on day 13 after infection (Rvb=51.3+/-5.2 U/l); format: toxicity, organism-based; set-up: route intraperitoneal; details: in vivo
Rattus norvegicus [10] = assay: Renal toxicity in neutropenic rat assessed as creatine level in serum at 10 mg/kg/day, ip administered 72 hrs post infection for 10 days measured on day 13 after infection (Rvb=26.7+/-6.1 umol/l); format: organism-based; set-up: route intraperitoneal; details: in vivo
Rattus norvegicus [11] = assay: Hepatotoxicity in neutropenic rat assessed as ASAT level in serum at 4 mg/kg/day, ip administered 72 hrs post infection for 10 days measured on day 13 after infection (Rvb=46.6+/-6.1 U/l); format: toxicity, organism-based; set-up: route intraperitoneal; details: in vivo
Rattus norvegicus [12] = assay: Renal toxicity in neutropenic rat assessed as creatine level in serum at 4 mg/kg/day, ip administered 72 hrs post infection for 10 days measured on day 13 after infection (Rvb=26.7+/-6.1 umol/l); format: organism-based; set-up: route intraperitoneal; details: in vivo
Rattus norvegicus [13] = assay: Renal toxicity in neutropenic rat assessed as blood urea nitrogen level in serum at 10 mg/kg/day, ip administered 72 hrs post infection for 3 days followed by 4 mg/kg/day, ip for 7 days measured on day 13 after infection (Rvb=5.8+/-0.4 mmol/l); format: organism-based; details: in vivo
Rattus norvegicus [14] = assay: Renal toxicity in neutropenic rat assessed as blood urea nitrogen level in serum at 4 mg/kg/day, ip administered 72 hrs post infection for 10 days measured on day 6 after infection (Rvb=4.4+/-0.5 mmol/l); format: organism-based; set-up: route intraperitoneal; details: in vivo
Rattus norvegicus [15] = assay: Hepatotoxicity in neutropenic rat assessed as ASAT level in serum at 10 mg/kg/day, ip administered 72 hrs post infection for 3 days followed by 4 mg/kg/day, ip for 7 days measured on day 6 after infection (Rvb=51.2+/-9.4 U/l); format: toxicity, organism-based; details: in vivo
Rattus norvegicus [16] = assay: Renal toxicity in neutropenic rat assessed as creatine level in serum at 10 mg/kg/day, ip administered 72 hrs post infection for 3 days followed by 4 mg/kg/day, ip for 7 days measured on day 6 after infection (Rvb=34.8+/-5.8 umol/l); format: organism-based; details: in vivo
Aspergillus fumigatus [17] = assay: Antifungal activity against Aspergillus fumigatus infected in neutropenic rat assessed as survival of rat at 4 mg/kg/day, ip administered 72 hrs post infection for 10 days; format: functional; details: route intraperitoneal
Rattus norvegicus [18] = assay: Renal toxicity in neutropenic rat assessed as […] in serum at 10 mg/kg/day, ip administered 72 hrs post infection for 10 days measured on day 6 after infection (Rvb=34.8+/-5.8 umol/l); format: organism-based; set-up: route intraperitoneal; details: in vivo
Rattus norvegicus [19] = assay: Hepatotoxicity in neutropenic rat assessed as ASAT level in serum at 10 mg/kg/day, ip administered 72 hrs post infection for 10 days measured on day 13 after infection (Rvb=46.6+/-6.1 U/l); format: toxicity, organism-based; set-up: route intraperitoneal; details: in vivo
Rattus norvegicus [20] = assay: Renal toxicity in neutropenic rat assessed as […] in serum at 10 mg/kg/day, ip administered 72 hrs post infection for 3 days followed by 4 mg/kg/day, ip for 7 days measured on day 13 after infection (Rvb=26.7+/-6.1 umol/l); format: organism-based; details: in vivo
Rattus norvegicus [21] = assay: Renal toxicity in neutropenic rat assessed as blood urea nitrogen level in serum at 10 mg/kg/day, ip administered 72 hrs post infection for 10 days measured on day 6 after infection (Rvb=4.4+/-0.5 mmol/l); format: organism-based; set-up: route intraperitoneal; details: in vivo
[22] = AUC in neutropenic rat at 10 mg/kg/day after 3 days; format: ADME, organism-based; details: plasma
Aspergillus fumigatus [23] = assay: Antifungal activity against Aspergillus fumigatus by Etest method; format: functional
Rattus norvegicus [24] = assay: Hepatotoxicity in neutropenic rat assessed as ALAT level in serum at 10 mg/kg/day, ip administered 72 hrs post infection for 3 days followed by 4 mg/kg/day, ip for 7 days measured on day 13 after infection (Rvb=51.3+/-5.2 U/l); format: toxicity, organism-based; details: in vivo
Aspergillus fumigatus [25] = assay: Antifungal activity against Aspergillus fumigatus infected in neutropenic rat assessed as survival of rat at 4 mg/kg/day, ip administered 24 hrs post infection for 10 days; format: functional; details: route intraperitoneal
Rattus norvegicus [26] = assay: Renal toxicity in neutropenic rat assessed as creatine level in serum at 4 mg/kg/day, ip administered 72 hrs post infection for 10 days measured on day 6 after infection (Rvb=34.8+/-5.8 umol/l); format: organism-based; set-up: route intraperitoneal; details: in vivo
Rattus norvegicus [27] = assay: Hepatotoxicity in neutropenic rat assessed as ASAT level in serum at 10 mg/kg/day, ip administered 72 hrs post infection for 3 days followed by 4 mg/kg/day, ip for 7 days measured on day 13 after infection (Rvb=46.6+/-6.1 U/l); format: toxicity, organism-based; details: in vivo
Rattus norvegicus [28] = assay: Hepatotoxicity in neutropenic rat assessed as ASAT level in serum at 4 mg/kg/day, ip administered 72 hrs post infection for 10 days measured on day 6 after infection (Rvb=51.2+/-9.4 U/l); format: toxicity, organism-based; set-up: route intraperitoneal; details: in vivo
Rattus norvegicus [29] = assay: Renal toxicity in neutropenic rat assessed as blood urea nitrogen level in serum at 4 mg/kg/day, ip administered 72 hrs post infection for 10 days measured on day 13 after infection (Rvb=5.8+/-0.4 mmol/l); format: organism-based; set-up: route intraperitoneal; details: in vivo
Rattus norvegicus [30] = assay: Renal toxicity in neutropenic rat assessed as blood urea nitrogen level in serum at 10 mg/kg/day, ip administered 72 hrs post infection for 3 days followed by 4 mg/kg/day, ip for 7 days measured on day 6 after infection (Rvb=4.4+/-0.5 mmol/l); format: organism-based; details: in vivo
[31] = AUC in neutropenic rat at 10 mg/kg/day for 3 days followed by 4 mg/kg/day for 7 days measured after 10 days; format: ADME, organism-based; details: plasma
Aspergillus fumigatus [32] = assay: Antifungal activity against Aspergillus fumigatus by CLSI method; format: functional

## CC[C@H](C)C[C@H](C)CCCCCCCCC(=O)N[C@H]1C[C@@H](O)[C@@H](NCCN)NC(=O)[C@@H]2[C@@H](O)CCN2C(=O)[C@H]([C@H](O)CCN)NC(=O)[C@H]([C@H](O)[C@@H](O)c2ccc(O)cc2)NC(=O)[C@@H]2C[C@@H](O)CN2C(=O)[C@H]([C@@H](C)O)NC1=O [CASPOFUNGIN]
Rattus norvegicus [1]
  Activity: 61.6 U/L
Rattus norvegicus [2]
  Activity: 113 U/L
Rattus norvegicus [3]
  Activity: 36.4 U/L
Rattus norvegicus [4]
  Activity: 11.4 mmol/L
Rattus norvegicus [5]
  Activity: 41.4 U/L
Aspergillus fumigatus [6]
  Activity: 100%
Aspergillus fumigatus [7]
  Activity: 67%
Rattus norvegicus [8]
  Activity: 31.5 U/L
Rattus norvegicus [9]
  Activity: 94.2 U/L
Rattus norvegicus [10]
  Activity: 28.4 µmol/L
Rattus norvegicus [11]
  Activity: 138.4 U/L
Rattus norvegicus [12]
  Activity: 24 µmol/L
Rattus norvegicus [13]
  Activity: 6.9 mmol/L
Rattus norvegicus [14]
  Activity: 12.2 mmol/L
Rattus norvegicus [15]
  Activity: 49.3 U/L
Rattus norvegicus [16]
  Activity: 36.5 µmol/L
Aspergillus fumigatus [17]
  Activity: 27%
Rattus norvegicus [18]
  Activity: 42 µmol/L
Rattus norvegicus [19]
  Activity: 68 U/L
Rattus norvegicus [20]
  Activity: 31 µmol/L
Rattus norvegicus [21]
  Activity: 10.9 mmol/L
[22]
  AUC at 72 h: 549 µg·h/mL
Aspergillus fumigatus [23]
  MIC: 0.05 µg/mL (≈ 0.0457 µM)
Rattus norvegicus [24]
  Activity: 50.5 U/L
Aspergillus fumigatus [25]
  Activity: 93%
Rattus norvegicus [26]
  Activity: 44.3 µmol/L
Rattus norvegicus [27]
  Activity: 50.2 U/L
Rattus norvegicus [28]
  Activity: 118 U/L
Rattus norvegicus [29]
  Activity: 15.7 mmol/L
Rattus norvegicus [30]
  Activity: 5.9 mmol/L
[31]
  AUC at 240 h: 114 µg·h/mL
Aspergillus fumigatus [32]
  MIC: 8 µg/mL (≈ 7.32 µM)
